pIC50, pKi: −log10 of the molar value.
Legend:
[1] = DRUGMATRIX: Calcium Channel Type L, Phenylalkylamine radioligand binding (ligand: [3H] (-)-Desmethoxyverapamil (D-888)); format: cell membranes, Rattus norvegicus, Wistar, Brain, Membrane; settings: Not Active = under 50% inhibition at 10 µM
[2] = DRUGMATRIX: Glutamate, NMDA, Agonism radioligand binding (ligand: [3H] CGP-39653); format: cell membranes, Rattus norvegicus, Wistar, Cerebral cortex, Membrane; settings: Not Active = under 50% inhibition at 10 µM
[3] = biological target: Epidermal growth factor receptor (Homo sapiens, UniProt P00533); assay: DRUGMATRIX: Protein Tyrosine Kinase, EGF Receptor enzyme inhibition (substrate: Poly(Glu:Tyr)); format: cell-based, Insect cells; settings: insect cells; Not Active = under 50% inhibition at 10 µM
Vasopressin V1a receptor = Vasopressin V1a receptor (Homo sapiens, UniProt P37288); format: cell membranes, Membrane; settings: hek293; further: in other assays of this panel Not Active means under 50% inhibition at 10 µM
[4] = biological target: 5-hydroxytryptamine receptor 6 (Homo sapiens, UniProt P50406); format: cell membranes, HeLa, Membrane; settings: for IC50: hela; on all read-outs here: in other assays of this panel Not Active means under 50% inhibition at 10 µM
[5] = DRUGMATRIX: Sodium/nucleoside co-transporter radioligand binding (ligand: nitrobenzylthioinosine); format: cell membranes, Cavia porcellus, Dunkin-Hartley, Cerebral cortex, Membrane; settings: Not Active = under 50% inhibition at 10 µM

Sequence of Epidermal growth factor receptor (P00533 whole entry): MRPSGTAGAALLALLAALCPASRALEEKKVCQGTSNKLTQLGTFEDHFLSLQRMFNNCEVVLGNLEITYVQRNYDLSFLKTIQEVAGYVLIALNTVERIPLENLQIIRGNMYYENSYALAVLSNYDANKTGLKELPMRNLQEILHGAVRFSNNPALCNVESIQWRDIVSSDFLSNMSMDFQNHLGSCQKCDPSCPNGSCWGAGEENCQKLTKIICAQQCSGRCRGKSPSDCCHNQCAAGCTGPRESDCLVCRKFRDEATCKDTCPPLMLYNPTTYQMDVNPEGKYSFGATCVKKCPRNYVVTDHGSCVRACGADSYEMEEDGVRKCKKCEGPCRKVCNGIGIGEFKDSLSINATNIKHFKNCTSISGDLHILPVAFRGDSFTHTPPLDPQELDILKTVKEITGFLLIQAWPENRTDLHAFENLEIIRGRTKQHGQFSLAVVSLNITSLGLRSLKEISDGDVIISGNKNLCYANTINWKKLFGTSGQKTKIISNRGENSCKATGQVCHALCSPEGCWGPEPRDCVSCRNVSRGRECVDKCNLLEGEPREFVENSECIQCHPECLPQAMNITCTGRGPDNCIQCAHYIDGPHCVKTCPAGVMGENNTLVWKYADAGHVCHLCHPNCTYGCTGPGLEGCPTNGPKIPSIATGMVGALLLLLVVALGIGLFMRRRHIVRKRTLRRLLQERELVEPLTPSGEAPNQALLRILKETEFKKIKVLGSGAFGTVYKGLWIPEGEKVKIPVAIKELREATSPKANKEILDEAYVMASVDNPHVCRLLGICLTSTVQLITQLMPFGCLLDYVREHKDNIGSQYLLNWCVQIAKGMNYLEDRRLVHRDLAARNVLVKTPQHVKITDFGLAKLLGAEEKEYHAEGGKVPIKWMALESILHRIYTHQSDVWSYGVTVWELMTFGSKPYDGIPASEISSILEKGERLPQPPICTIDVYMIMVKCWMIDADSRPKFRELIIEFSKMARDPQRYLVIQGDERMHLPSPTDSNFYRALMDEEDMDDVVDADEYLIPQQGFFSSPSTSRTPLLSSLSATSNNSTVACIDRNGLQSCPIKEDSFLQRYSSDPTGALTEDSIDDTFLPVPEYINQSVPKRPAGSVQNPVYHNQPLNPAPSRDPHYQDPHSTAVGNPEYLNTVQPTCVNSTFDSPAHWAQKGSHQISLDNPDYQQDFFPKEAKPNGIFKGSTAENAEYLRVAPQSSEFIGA
Sequence of 5-hydroxytryptamine receptor 6 (P50406 whole entry): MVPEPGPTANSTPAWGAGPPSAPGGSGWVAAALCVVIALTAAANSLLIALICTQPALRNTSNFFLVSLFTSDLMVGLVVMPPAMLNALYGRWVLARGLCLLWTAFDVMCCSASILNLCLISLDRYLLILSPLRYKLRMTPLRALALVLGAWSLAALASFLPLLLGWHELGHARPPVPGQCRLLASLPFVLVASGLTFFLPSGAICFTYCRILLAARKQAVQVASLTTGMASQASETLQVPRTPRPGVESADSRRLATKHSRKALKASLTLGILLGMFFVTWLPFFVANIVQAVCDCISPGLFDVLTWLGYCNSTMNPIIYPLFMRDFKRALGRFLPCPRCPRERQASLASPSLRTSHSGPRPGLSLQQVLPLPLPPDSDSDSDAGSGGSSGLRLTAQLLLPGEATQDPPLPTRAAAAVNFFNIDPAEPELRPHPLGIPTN
Sequence of Vasopressin V1a receptor (P37288 whole entry): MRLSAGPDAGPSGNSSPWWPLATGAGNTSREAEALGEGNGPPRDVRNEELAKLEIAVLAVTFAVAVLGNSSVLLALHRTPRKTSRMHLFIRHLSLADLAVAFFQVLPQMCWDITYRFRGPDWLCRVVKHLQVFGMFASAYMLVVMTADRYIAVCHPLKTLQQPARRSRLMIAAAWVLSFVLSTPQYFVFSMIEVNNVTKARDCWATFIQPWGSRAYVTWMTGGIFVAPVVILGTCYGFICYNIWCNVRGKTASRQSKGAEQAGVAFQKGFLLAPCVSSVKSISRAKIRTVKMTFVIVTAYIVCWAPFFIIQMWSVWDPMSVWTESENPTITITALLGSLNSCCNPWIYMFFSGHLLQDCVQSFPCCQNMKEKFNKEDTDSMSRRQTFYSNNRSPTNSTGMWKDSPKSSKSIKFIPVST

Compound	IC50 [1]	Ki [1]	IC50 [2]	Ki [2]	IC50 [3]	IC50 (Vasopressin V1a receptor)	IC50 [4]	IC50 [5]	Ki [5]	pIC50 ([1]; read-out: IC50)	pKi ([1]; read-out: Ki)	pIC50 ([4]; read-out: IC50)	pKi ([4]; read-out: Ki)
Cc1ccc(S(=O)(=O)NC(=O)NN2CCCCCC2)cc1 [TOLAZAMIDE]	Not Active	Not Active	Not Active	Not Active	Not Active	Not Active	Not Active	Not Active	Not Active				
CC(Cl)(Cl)Cl [TRICHLOROETHANE]	Not Active	Not Active	Not Active	Not Active	Not Active	Not Active	Not Active	Not Active	Not Active				
CC(C)(C)NC[C@H](O)COc1cccc2c1CCCC2=O [LEVOBUNOLOL]	Not Active	Not Active	Not Active	Not Active	Not Active	Not Active	Not Active	Not Active	Not Active				
CCN1CCCC1CNC(=O)c1cc(S(N)(=O)=O)ccc1OC (stereo not drawn) [SULPIRIDE]	Not Active	Not Active	Not Active	Not Active	Not Active	Not Active	Not Active	Not Active	Not Active				
Cc1cccc(C)c1NC(=O)C(C)N (stereo not drawn) [TOCAINIDE]	Not Active	Not Active	Not Active	Not Active	Not Active	Not Active	Not Active	Not Active	Not Active				
CCOC(=O)C1=C(C)NC(C)=C(C(=O)OCC)C1c1ccccc1/C=C/C(=O)OC(C)(C)C [LACIDIPINE]	Not Active	Not Active	Not Active	Not Active	Not Active	Not Active	Not Active	Not Active	Not Active				
C=CCc1ccc2c(c1)OCO2 [SAFROLE]	Not Active	Not Active	Not Active	Not Active	Not Active	Not Active	Not Active	Not Active	Not Active				
O=C(OC[C@H]1O[C@@H](OC(=O)c2cc(O)c(O)c(OC(=O)c3cc(O)c(O)c(O)c3)c2)[C@H](OC(=O)c2cc(O)c(O)c(OC(=O)c3cc(O)c(O)c(O)c3)c2)[C@@H](OC(=O)c2cc(O)c(O)c(OC(=O)c3cc(O)c(O)c(O)c3)c2)[C@@H]1OC(=O)c1cc(O)c(O)c(OC(=O)c2cc(O)c(O)c(O)c2)c1)c1cc(O)c(O)c(OC(=O)c2cc(O)c(O)c(O)c2)c1 [TANNIC ACID]	Not Active	Not Active	Not Active	Not Active	Not Active	Not Active	Not Active	Not Active	Not Active				
CO[C@@]12[C@H](COC(N)=O)C3=C(C(=O)C(C)=C(N)C3=O)N1C[C@@H]1N[C@@H]12 [MITOMYCIN]	Not Active	Not Active	Not Active	Not Active	Not Active	Not Active	Not Active	Not Active	Not Active				
CN1C[C@H](CNC(=O)OCc2ccccc2)C[C@@H]2c3cccc4c3c(cn4C)C[C@H]21 [METERGOLINE]			Not Active	Not Active	Not Active	Not Active		Not Active	Not Active	6.56	6.57	7.55	7.89
Cc1[nH]c(=O)c(C#N)cc1-c1ccncc1 [MILRINONE]	Not Active	Not Active	Not Active	Not Active	Not Active	Not Active	Not Active	Not Active	Not Active				
O=C1CC[C@@]2(O)[C@H]3Cc4ccc(O)c5c4[C@@]2(CCN3CC2CC2)[C@H]1O5 [NALTREXONE]	Not Active	Not Active	Not Active	Not Active	Not Active	Not Active	Not Active	Not Active	Not Active				
CC(=O)O[C@]1(C(C)=O)CC[C@H]2[C@@H]3C[C@H](C)C4=CC(=O)CC[C@]4(C)[C@H]3CC[C@@]21C [MEDROXYPROGESTERONE ACETATE]	Not Active	Not Active	Not Active	Not Active	Not Active	Not Active	Not Active	Not Active	Not Active				
Cc1cn([C@H]2C=C[C@@H](CO)O2)c(=O)[nH]c1=O [STAVUDINE]	Not Active	Not Active	Not Active	Not Active	Not Active	Not Active	Not Active	Not Active	Not Active				
Cc1cnc(NC(=O)C2=C(O)c3ccccc3S(=O)(=O)N2C)s1 [MELOXICAM]	Not Active	Not Active	Not Active	Not Active	Not Active	Not Active	Not Active	Not Active	Not Active				
CC(O)C(=O)O (stereo not drawn) [LACTIC ACID]	Not Active	Not Active	Not Active	Not Active	Not Active	Not Active	Not Active	Not Active	Not Active				
C1CCN2C[C@@H]3C[C@@H](CN4CCCC[C@@H]34)[C@H]2C1 [SPARTEINE]	Not Active	Not Active	Not Active	Not Active	Not Active	Not Active	Not Active	Not Active	Not Active				
CC(N)C12CC3CC(CC(C3)C1)C2 (stereo not drawn) [RIMANTADINE]	Not Active	Not Active	Not Active	Not Active	Not Active	Not Active	Not Active	Not Active	Not Active				

— ChEMBL document CHEMBL1909046, “DrugMatrix in vitro pharmacology data”
